Series [1] concerns fetal mice heterozygous for thymidine kinase under the albumin promoter. The note with it: for fetal hepatocyte injury (histology): 14 days gestation. The source says:
The suicide gene product preferably is expressed in the appropriate tissue of the fetal host mammal at a level sufficient to be sensitive to a prodrug. The optimal dose of a prodrug depends on the prodrug, the particular suicide gene, the level of suicide gene expression in the target cells, zygosity of the fetal mammal, route of administration, and placental transport. Optimal doses can readily be determined by administering increasing doses of the prodrug to the pregnant mammal, assessing the effect on the target cells using standard pathology methods and assessing the effect on fetal survival using ultrasound and pathology techniques. The optimal dose would produce significant cell injury (>20%) with a minimum of fetal deaths (<15%).
Transgenic mice were produced with the FVB strain containing the mutated thymidine kinase transgene under the albumin promoter. […] These males were bred with non-transgenic FVB mice. At 14 days gestation, gancyclovir (0 to 100 mg/kg body weight) was injected intravenously into the pregnant mice. Tissues from the mothers and fetuses were analyzed by histology.

The test system of series [2] is untransfected Huh-7 cells. As to the kind of experiment: Gancyclovir effect on untransfected cells, propidium iodine FACS. Format: cell-based, human. Conditions: gancyclovir 4, 8, 16 μM in culture media. How it is done: To assess the function of mutated thymidine kinase, Huh-7 cells were stably transfected with AlbxTK. Transfected cells were selected using 200 μg/ml Zeocin. Transfected cells as well as untransfected cells were plated in duplicate in 24-well plates at a 40 percent confluence ratio. Gancyclovir was added to the cells in the culture media at different concentrations (4 μM, 8 μM, and 16 μM. After 5 days, the cells were trypsinized, washed twice in PBS, and stained with propidium iodine for FACS analysis.

The subject of series [3] is fetal pig liver. As to the kind of experiment: Engraftment of human hepatocytes in fetal pigs after gancyclovir to the sow and human cord blood cell infusion. Format: in vivo. The note with it: gancyclovir 100 mg/kg i.v. to sow. Here is the method:
A non-transgenic sow is bred with a boar that is hemizygous for a mutated thymidine kinase transgene under the control of an albumin promoter. Pregnancy is confirmed with ultrasound and gancyclovir (100 mg/kg, i.v.) is administered at 40 days gestation. A laparotomy is performed at 45 days. Each pig is infused with 10×10^6 human cord blood cells. The piglets are delivered at term by Caesarean section. Blood is drawn from each fetal pig and analyzed for the presence of the suicide transgene using PCR. Serum is tested for the presence of human liver proteins, including albumin, α1-antitrypsin, and serum amyloid A. Sections of liver are frozen and stained for human albumin.

In series [4] the test system is Huh-7 cells stably transfected with AlbxTK. Briefly: Gancyclovir sensitivity of Huh-7 cells transfected with AlbxTK, propidium iodine FACS. Format: cell-based, human. Here is the method:
Mouse and human liver cell lines were transfected with constructs containing delta thymidine kinase under the control of either a porcine albumin or α-fetoprotein (AFP) promoter. The mouse cell line (TIB73) is a line of mature hepatocytes in which albumin is expressed. The human cell line (Huh-7) is a line of hepatocellular carcinoma cells that express predominantly AFP. The transfected cells were tested for thymidine kinase by Western blot. To assess the function of mutated thymidine kinase, Huh-7 cells were stably transfected with AlbxTK. Transfected cells were selected using 200 μg/ml Zeocin. Transfected cells as well as untransfected cells were plated in duplicate in 24-well plates at a 40 percent confluence ratio. Gancyclovir was added to the cells in the culture media at different concentrations (4 μM, 8 μM, and 16 μM. […]

The subject of series [5] is mice expressing thymidine kinase under the albumin promoter. As to the kind of experiment: Engraftment of human hepatocytes in transgenic mice given gancyclovir after birth. Format: in vivo, mouse. Conditions: 50 mg/kg on days 1 and 3 at 14 days of age; sacrificed thirty days later. How it is done: Transgenic mice are produced that express the thymidine kinase gene under the albumin promoter. The male mice are bred with wild type females. Human hepatocytes (2×10^6 per fetal mouse) are injected at 17 days gestation, just prior to delivery. At 14 days of age, the mice are injected with gancyclovir (50 mg/kg) on days 1 and 3 or with the vehicle. Thirty days later, the mice are sacrificed.

The subject of series [6] is hepatocytes of adult transgenic mice. Conditions: administered to adult transgenic mice; cited from earlier work.
Series [7] relates to non-transgenic FVB mice (mothers). Briefly: Gancyclovir i.v. to pregnant non-transgenic mice, histology of the mothers. The format is in vivo, mouse. Conditions: any dose (0 to 100 mg/kg i.v.). The text has this: These males were bred with non-transgenic FVB mice.
Series [8] has as its system pancreatic islets. Conditions: injected into fetal animals; cited from earlier work.
The subject of series [9] is pancreatic islets. The note with it: injected into fetal animals; cited from earlier work. This is another data set of the same source.

Where two headings read alike, the source gives them in different places.

Regarding `Nc1nc(O)c2ncn(COC(CO)CO)c2n1` [gancyclovir], the fetal survival result in [1] (25 mg/kg intravenous injection to pregnant mouse) is “the fetal pups survived”; in series [1] (50 mg/kg and higher, to pregnant mouse), “the fetal mice died”. In addition, the “fetal hepatocyte injury (histology)” value in series [1] (50 mg/kg i.v. to pregnant mouse) and in series [1] (100 mg/kg i.v. to pregnant mouse) was “massive hepatic necrosis” each time. Further, the “injury to the non-liver tissues in the fetal mice” value in series [1] (mouse, in vivo) is “no observable injury”. Further, the placental transfer result in [1] (mouse, in vivo, iv) is reported as “crosses the placental barrier”. Besides, the “effect on non-transfected cells” value in series [2] is “only a minimal effect”. The “levels of human albumin, α1-antitrypsin inhibitor and serum amyloid A” value in [3] (piglets without thymidine kinase transgene) is “less than 1 % of levels seen in humans”. Also, the “liver engrafted with human hepatocytes” value is given as 25 % of the total liver in [3] (pigs with thymidine kinase suicide gene, average) and “less than 2 % of the total liver” in series [3] (pigs without suicide transgene). Also, in series [4] (8 or 16 μM gancyclovir, 5 days), the cell death entry is listed as “significantly more cell death”. Further, the cell killing result in [4] (7 days) was “entirely killed”. Besides, in series [5], the “engraftment with human hepatocytes versus controls not treated” value was “substantially greater engraftment”. Further, the hepatocyte death result in [6] is “Most of the hepatocytes then died off”. In [7], the “injury to the hepatocytes of the mother” value is recorded as “no observable injury”.

In the case of `CN(N=O)C(=O)N[C@H]1C(O)O[C@H](CO)[C@@H](O)[C@@H]1O` (mixture of isomers) [streptozotocin], in series [8], the “effect on fetal pancreatic islets” value was “destroys the pancreatic islets” and the “effect on maternal islets” value is on record as “relatively little effect”. For the same compound, in [9], the “effect on fetal pancreatic islets” value is recorded as “destroys the pancreatic islets” and the “effect on maternal islets” value is listed as “relatively little effect”.

These data come from patent publication US7626075B2, “Growth of foreign cells in fetal animals facilitated by conditional and selective destruction of native host cells” (priority 2002, dated 2009).
